We go through 10 compounds from patent publication US20090221567A1, “MUSCARINIC RECEPTOR AGONISTS, COMPOSITIONS, METHODS OF TREATMENT THEREOF, AND PROCESSES FOR PREPARATION THEREOF 177” (ASTRAZENECA AB, priority 2008, published 2009).

Read-outs that look alike come from different tables or passages of the source. Where only a bound is given, the exact number is not on record here.

What is called EC50 is the concentration that produces a half-maximal response.

Common to all, as to type: cell-based
Assay [1] concerns the target T1, hM3 (human Muscarinic receptor subtype 3) (Homo sapiens, UniProt P20309).
T1 construct: expressed in transfected cells; host or cells: CHO cells (Chinese hamster ovary cells, ATCC)
Description: Human M3 calcium mobilization FLIPR assay. The settings on record: receptor expressed in CHO cells, intracellular Ca2+ release. The procedure:
(§1) The compound activity in the present invention (EC50 or IC50) is measured using a 384 plate-based imaging assay that monitors drug induced intracellular Ca^2+ release in whole cells. Activation of hM1 (human Muscarinic receptor subtype 1, gene bank access NM_000738), rM1 (rat Muscarinic receptor subtype 1, gene bank access NM_080773), hM3 (human Muscarinic receptor subtype 3, gene bank access NM_000740NM_000740) and hM5 (human Muscarinic receptor subtype 5, gene bank access NM_0121258), receptors expressed in CHO cells (Chinese hamster ovary cells, ATCC) is quantified in a Molecular Devices FLIPR IITM instrument as an increase in fluorescent signal. Inhibition of hM3 and hM5 by compounds is determined by the decrease in fluorescent signal in response to 2 nM acetylcholine activation.
(§2) Prior to experiment, the cell culture medium is removed from the plates by inversion. […] Plates are incubated at 37° C. for 60 minutes prior to start the experiment. The incubation is terminated by washing the cells four times in assay buffer, leaving a residual 25 μl buffer per well. Cell plates are then transferred to the FLIPR, ready for compound additions.
(§3) The day of experiment, acetylcholine and compounds are diluted in assay buffer in three-fold concentration range (10 points serial dilution) for addition by FLIPR instrument. For all calcium assays, a baseline reading is taken for 10 seconds followed by the addition of 12.5 μl of compounds, resulting in a total well volume of 37.5 μl. Data is collected every second for 60 pictures and then every 6 seconds for 20 pictures prior to the addition of agonist. For hM3 and hM5, before agonist addition, a second baseline reading is taken for 10 seconds followed by the addition of 12.5 μl of agonist or buffer, producing a final volume of 50 μl. After agonist stimulation, the FLIPR continues to collect data every second for 60 pictures and then every 6 seconds for 20 pictures. The fluorescence emission is read using filter 1 (emission 510-570 nm) by the FLIPR on board CCD camera.
(§4) Calcium mobilization output data are calculated as the maximal relative fluorescence unit (RFU) minus the minimal value for both compound and agonist reading frame (except for hM1 and rM1 using only the maximal RFU). Data are analyzed using sigmoidal fits of a non-linear curve-fitting program (XLfit version 4.2.2 Excel add-in version 4.2.2 build 18 math 1Q version 2.1.2 build 18). All pEC50 and pIC50 values are reported as arithmetic means±standard error of mean of ‘n’ independent experiments.

In assay [2] the target is T2, hM5 (human Muscarinic receptor subtype 5) (Homo sapiens, UniProt P08912).
T2 construct: expressed in transfected cells; host or cells: CHO cells (Chinese hamster ovary cells, ATCC)
T2 sequence (P08912 1-532): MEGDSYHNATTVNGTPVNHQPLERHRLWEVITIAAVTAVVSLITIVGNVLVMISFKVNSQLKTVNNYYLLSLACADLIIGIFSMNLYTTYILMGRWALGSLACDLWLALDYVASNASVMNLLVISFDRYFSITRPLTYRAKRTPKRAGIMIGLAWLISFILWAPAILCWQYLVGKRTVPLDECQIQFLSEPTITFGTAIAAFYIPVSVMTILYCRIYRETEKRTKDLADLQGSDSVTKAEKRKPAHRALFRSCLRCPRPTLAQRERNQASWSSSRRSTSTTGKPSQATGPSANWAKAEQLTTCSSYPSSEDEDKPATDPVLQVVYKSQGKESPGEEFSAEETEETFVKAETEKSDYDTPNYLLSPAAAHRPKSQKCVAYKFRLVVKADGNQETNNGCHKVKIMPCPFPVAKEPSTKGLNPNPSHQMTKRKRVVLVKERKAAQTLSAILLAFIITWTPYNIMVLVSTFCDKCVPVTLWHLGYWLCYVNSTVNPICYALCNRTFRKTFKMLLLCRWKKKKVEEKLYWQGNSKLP
The experiment in a line: Human M5 calcium mobilization FLIPR assay. The settings on record: receptor expressed in CHO cells, intracellular Ca2+ release. The procedure:
as §1, §2, §3, §4

For assay [3], the target named is T3, hM1 (human Muscarinic receptor subtype 1) (Homo sapiens, UniProt P11229).
T3 construct: expressed in transfected cells; host or cells: CHO cells (Chinese hamster ovary cells, ATCC)
T3 sequence (P11229 1-460): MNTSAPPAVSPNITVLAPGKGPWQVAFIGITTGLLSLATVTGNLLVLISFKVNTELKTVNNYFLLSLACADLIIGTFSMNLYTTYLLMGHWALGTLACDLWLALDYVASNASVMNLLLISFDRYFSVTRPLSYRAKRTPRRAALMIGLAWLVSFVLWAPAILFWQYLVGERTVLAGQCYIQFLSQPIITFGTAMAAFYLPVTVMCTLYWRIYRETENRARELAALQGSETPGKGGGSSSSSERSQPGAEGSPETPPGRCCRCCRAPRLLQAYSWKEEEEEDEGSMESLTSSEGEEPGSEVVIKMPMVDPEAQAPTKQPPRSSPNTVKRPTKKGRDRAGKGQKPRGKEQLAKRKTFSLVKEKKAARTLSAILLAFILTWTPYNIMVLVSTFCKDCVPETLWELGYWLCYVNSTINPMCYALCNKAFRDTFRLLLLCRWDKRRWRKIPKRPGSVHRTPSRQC
The experiment in a line: Human M1 calcium mobilization FLIPR assay. As for the experimental part:
as §1, §2, §3, §4

The mark [4] stands for this setting: receptor expressed in CHO cells, intracellular Ca2+ release, read-out: hM1 EC50.

T1 sequence (P20309 whole entry): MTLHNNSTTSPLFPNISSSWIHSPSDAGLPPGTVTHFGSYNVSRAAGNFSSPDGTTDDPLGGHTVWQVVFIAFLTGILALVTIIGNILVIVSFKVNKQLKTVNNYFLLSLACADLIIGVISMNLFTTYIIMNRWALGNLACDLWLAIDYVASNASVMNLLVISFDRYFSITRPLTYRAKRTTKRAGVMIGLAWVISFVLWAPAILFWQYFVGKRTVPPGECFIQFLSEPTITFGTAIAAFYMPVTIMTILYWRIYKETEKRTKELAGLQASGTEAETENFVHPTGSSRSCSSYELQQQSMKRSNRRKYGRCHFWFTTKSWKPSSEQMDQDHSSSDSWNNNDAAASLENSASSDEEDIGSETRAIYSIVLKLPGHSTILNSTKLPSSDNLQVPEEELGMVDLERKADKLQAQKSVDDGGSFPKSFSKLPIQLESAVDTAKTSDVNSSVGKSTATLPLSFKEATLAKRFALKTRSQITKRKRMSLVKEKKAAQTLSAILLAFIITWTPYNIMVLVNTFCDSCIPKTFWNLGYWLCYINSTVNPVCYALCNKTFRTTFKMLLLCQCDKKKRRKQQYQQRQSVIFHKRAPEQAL

Regarding `COc1ccsc1C(=O)N1CCC(N2CCC(N3C(=O)OC[C@H]4CCCC[C@@H]43)CC2)CC1` (racemic) [Example 17, (±)(trans)-10-[1-[1-(3-methoxythiophene-2-carbonyl)-4-piperidyl]-4-piperidyl]-8-oxa-10-azabicyclo[4.4.0]decan-9-one], the EC50 was above 40000 nM in assay [1], above 40000 nM in assay [2] and 270 nM in assay [3] (setting [4]).
As to `Cc1ccccc1C(=O)N1CCC(N2CCC(N3C(=O)OC[C@H]4CCCC[C@@H]43)CC2)CC1` [(4aS,8aS)-1-[1-[1-(2-methylbenzoyl)-4-piperidyl]-4-piperidyl]-4a,5,6,7,8,8a-hexahydro-4H-benzo[d][1,3]oxazin-2-one], in assay [3] (read-out: hM1 EC50 values), the EC50 is above 2890 nM.
As for `CCOC(=O)N1CCC(N2CCC(N3C(=O)NC[C@H]4CCCC[C@@H]43)CC2)C1` (stereo partly drawn) [Example 5, ethyl 3-[4-[(4aR,8aS)-2-oxo-3,4,4a,5,6,7,8,8a-octahydroquinazolin-1-yl]-1-piperidyl]pyrrolidine-1-carboxylate], the EC50 in assay [3] (setting [4]) stood at 31 nM.
On the same count and under the same terms, under `CC(C)OC(=O)N1CCC(N2CCC(N3C(=O)OC[C@H]4CCCC[C@@H]43)CC2)CC1` [Example 16, Propan-2-yl 4-[4-[(1S,6S)-9-oxo-8-oxa-10-azabicyclo[4.4.0]dec-10-yl]-1-piperidyl]piperidine-1-carboxylate] stands 220 nM.
As to `CC(C)OC(=O)N1CCC(C)(N2CCC(N3C(=O)CN[C@H]4CCCC[C@@H]43)CC2)CC1` [isopropyl 4-[4-[(4aS,8aS)-2-oxo-3,4,4a,5,6,7,8,8a-octahydroquinoxalin-1-yl]-1-piperidyl]-4-methyl-piperidine-1-carboxylate], the EC50 in assay [3] (read-out: hM1 EC50 values) is above 2890 nM.
On the same count and under the same terms, to `CC(C)OC(=O)N1CCC(C)(N2CCC(N3C(=O)CO[C@H]4CCCC[C@@H]43)CC2)CC1` [isopropyl 4-[4-[(4aS, 8aS)-3-oxo-4a,5,6,7,8,8a-hexahydrobenzo[b][1,4]oxazin-4-yl]-1-piperidyl]-4-methyl-piperidine-1-carboxylate] belongs above 2890 nM; to `CC(C)OC(=O)N1CC[C@H](N2CCC(N3C(=O)CO[C@H]4CCCC[C@@H]43)CC2)C1` [isopropyl (3S)-3-[4-[(4aS,8aS)-3-oxo-4a,5,6,7,8,8a-hexahydrobenzo[b][1,4]oxazin-4-yl]-1-piperidyl]pyrrolidine-1-carboxylate], above 2890 nM; to `COC(=O)N1CCC(N2CCC(N3C(=O)OC[C@H]4CCCC[C@@H]43)CC2)CC1` [methyl 4-[4-[(4aS,8aS)-2-oxo-4a,5,6,7,8,8a-hexahydro-4H-benzo[d][1,3]oxazin-1-yl]-1-piperidyl]piperidine-1-carboxylate], above 2890 nM.
Same read-out and setting: to `CC(C)(C)OC(=O)N1CCC(N2CCC(N3C(=O)OC[C@@H]4CCCC[C@H]43)CC2)CC1` [tert-butyl 4-[4-[(4aR,8aR)-2-oxo-4a,5,6,7,8,8a-hexahydro-4H-benzo[d][1,3]oxazin-1-yl]-1-piperidyl]piperidine-1-carboxylate] belongs above 2890 nM; to `CC(C)(C)OC(=O)N1CCC(N2CCC(N3C(=O)CO[C@H]4CCCC[C@@H]43)CC2)CC1` [tert-butyl 4-[4-[(4aS,8aS)-3-oxo-4a,5,6,7,8,8a-hexahydrobenzo[b][1,4]oxazin-4-yl]-1-piperidyl]piperidine-1-carboxylate], above 2890 nM.
